Where a SMILES comes first, the peptide text is derived from it.
Test system: depressor response to spinal cord stimulation
Assay: Inhibition of depressor response to spinal cord stimulation in the pithed rat
Format: in vivo, Sprague Dawley rats
Details: for mean reduction (% of maximal depressor response): pithed male Sprague Dawley rat, intravenous, given prior to spinal cord stimulation; for effect when repeated a second time after a second non-antagonized depressor response: all animals examined
Method: Male Sprague Dawley rats (300±25 g) were anesthetized with pentobarbital sodium (50 mg/kg i.p.) and polyethylene catheters were positioned in both femoral veins for the intravenous administration of drugs, such as nociceptin and analogues, and into the left femoral artery in order to measure arterial blood pressure and heart rate.
The trachea was cannulated with polyethylene tubing and the rat was pithed, ventilated and drug treated as described by Nuki Y. et al. (Effects of Dorsal Rhizotomy on Depressor Response to Spinal Cord Stimulation Mediated by Endogenous Calcitonin Gene-related Peptide in the Pithed Rat. J. Neurosurg. 1993; 79: 899-904).
Prior administration of nociceptin and related analogs inhibited the depressor response to spinal cord stimulation accordingly: […]

Compound: CC(=O)N[C@@H](CCCNC(=N)N)C(=O)N[C@@H](Cc1ccc(O)cc1)C(=O)N[C@@H](Cc1ccc(O)cc1)C(=O)N[C@@H](CCCNC(=N)N)C(=O)N[C@@H](Cc1c[nH]c2ccccc12)C(=O)N[C@@H](CCCCN)C(N)=O [Ac--Arg--Tyr--Tyr--Arg--Trp--Lys--NH2, Ac-Arg-Tyr-Tyr-Arg-Trp-Lys-NH2] (Ac-RYYRWK-NH2)
- mean reduction (% of maximal depressor response) (dose 0.1 mg/kg): 54 ± 12 % of maximal depressor respons
- mean reduction (% of maximal depressor response) (dose 0.3 mg/kg): 32 ± 7 % of maximal depressor respons
- effect when repeated a second time after a second non-antagonized depressor response (pithed rat): seen when repeated a second time
- dose-response of inhibition of depressor response (pithed rat, doses 0.1 and 0.3 mg/kg): clear dose-response

Compound: CC(C)C[C@H](NC(=O)[C@H](CCCCN)NC(=O)[C@H](CCCN=C(N)N)NC(=O)[C@H](C)NC(=O)[C@H](CO)NC(=O)[C@H](CCCCN)NC(=O)[C@H](CCCN=C(N)N)NC(=O)[C@H](C)NC(=O)CNC(=O)[C@@H](NC(=O)[C@H](Cc1ccccc1)NC(=O)CNC(=O)CNC(=O)[C@@H](N)Cc1ccccc1)[C@@H](C)O)C(=O)N[C@@H](C)C(=O)N[C@@H](CC(N)=O)C(=O)N[C@@H](CCC(N)=O)C(=O)O [nociceptin, reference compound]
- mean reduction (% of maximal depressor response) (dose 0.1 mg/kg): 29 ± 9 % of maximal depressor respons
- mean reduction (% of maximal depressor response) (dose 0.3 mg/kg): 23 ± 6 % of maximal depressor respons
- effect when repeated a second time after a second non-antagonized depressor response (pithed rat): seen when repeated a second time

From patent publication US6011006A, “Method of treating hot flushes with hexapeptides” (Novo Nordisk A/S, priority 1998, dated 2000)
